Experimental data reported in patent US20200155478A1, “XIBORNOL FOR USE IN THE TREATMENT OF ACNE VULGARIS” (ABIOGEN PHARMA S.P.A., priority 2017, published 2020).
Values after ≈ are worked out from the molar mass of the structure shown.

Assays:
[1] = system: inflammatory cytokine IL-8; experiment: Mouse model for Acne vulgaris induced by Propionibacterium acnes, IL-8 ELISA in ear homogenate supernatants; assay type: in vivo, Balb/c strain mice
Protocol: For the experiment, female Balb/c strain mice were used, grouped according to the experimental plan shown below in Table 5: [table] The sham group consisted of mice which received an intradermal injection, in each ear, of 25 μl of D-PBS (Dulbecco's phosphate buffered saline), while the other two groups consisted of mice which received an intradermal injection, in each ear, of 25 μl of D-PBS containing 10^8 CFU (colony-forming units) of Propionibacterium acnes. As of the day following the injection: • the sham group of mice was not treated; • the control group was treated, once a day, for 7 consecutive days, directly to the sites of inoculation of the bacterium, with a topical application of the formulation without active principle, i.e. with the carrier, consisting of three parts of paraffin oil and two parts of filamentary vaseline; • the […], once a day, for 7 consecutive days, directly to the sites of inoculation of the bacterium), with a topical application of the formulation containing xibornol in a concentration of 0.1% (corresponding to 0.79 mg/mL) in the carrier, consisting of three parts of paraffin oil and two parts of filamentary vaseline. The mice were sacrificed 24 hours after the last topical application. […]

[2] = Dissolution of xibornol in 4% isopropanol; assay type: physicochemical
Protocol: In order to perform the antimicrobial tests in aqueous solutions (broth and agar), said xibornol, a lipophilic molecule, was dissolved in a hydrophilic solvent, and more specifically in isopropanol.

[3] = system: Propionibacterium acnes; experiment: Determination of the minimum bactericidal concentration (MBC), inoculation on RCA plates; assay type: cell-based
Protocol: (§1) Two strains of Propionibacterium acnes were used for this test: the Grerath strain (ATCC-11827) and the VPI 0389 strain (ATCC-6919).
(§2) Clostridial differential broth (CDB, liquid medium) and reinforced clostridial agar (RCA, solid medium) were used for the culture. Growth occurred under anaerobic conditions obtained in a 7.0 L GENBOX JAR.
(§3) The anaerobic conditions were obtained by activating the Anaerocult A preparation and the anaerobiosis control was assessed by using ANAEROTEST strips for microbiology.
(§4) The Propionibacterium acnes was incubated at 37° C. for 72 hours.
To determine the minimum bactericidal concentration (MBC), 10 μl of solution was taken from each well on the above described plate and inoculated on RCA plates containing the same concentrations of xibornol in 4% isopropanol present in the wells of the plate.

[4] = system: RHE EPISKIN artificial epidermis; experiment: Skin irritation and sensitisation test (OECD TG 404), MTT viability; assay type: cell-based, human; details: liquid formulations of xibornol, isopropanol and PBS buffer; 42' contact, assessed after 42 hours
Protocol: In order to establish the usable concentrations of xibornol in solution for the production of pharmaceutical forms intended for external topical use, a skin irritation and sensitisation test was carried out, according to standard OECD TG 404, method B.4, Annex V, Directive 67/548/EEC. A RHE EPISKIN artificial epidermis unit was used for the test. The kit consisted of 24 reconstructed epidermis units with a total area of 0.33 cm^2. Each unit consisted of a collagen matrix with a stratified, differentiated epidermis derived from human keratinocytes placed on top thereof. The substances to be tested were placed in contact (42′) with the epidermis and the effects assessed after 42 hours, incubating the units with MTT (3-(4,5-dimethylthiazol-2-yl)-2,5-diphenyltetrazolium bromide) which, under the experimental conditions, reduced to formazan upon contact with metabolically active cells, turning the coloured solution from yellow into blue. Since the obtained colour is directly proportional to the concentration of formazan, and therefore to the cell viability, after incubation with MTT for 3 hours, optical density readings were taken by using the spectrophotometer (DO 572-650 nm).

[5] = system: Propionibacterium acnes; experiment: Determination of the minimum inhibitory concentration (MIC), 96-well broth plate, OD 600 nm and PrestoBlue; assay type: cell-based
Protocol: as §1, §2, §3, §4
Propionibacterium acnes strains were reactivated from ATCC vials, rehydrated with CDB medium, and then seeded on RCA plates.
To cultivate Propionibacterium acnes in broth, isolated colonies were taken from culture plates and inoculated in the CBD medium.
After culturing, the concentration of bacterial cells was normalised using the McFarland 0.5 standard.
A 96-well plate was prepared in order to establish the minimum inhibitory concentration; the xibornol was dissolved in a 4% isopropanol solution in various concentrations, and the samples were prepared according to the experimental plan shown in the following table 1.
All the wells in rows D, E, F and the first three wells from the left in row H contained Propionibacterium acnes at the final concentration of 5×10^5 bacteria/mL.
Row G (wells 1, 2, 3) was the negative control and contained only the culture medium, without bacteria, xibornol, or isopropanol.
Row H (wells 1,2,3) was the positive control and contained the bacterial culture without xibornol or isopropanol.
Unmarked wells were empty.
The reading of the plate, after an incubation under anaerobic conditions at 37° C., was performed after 72 hours.
A first spectrophotometer reading was taken, including measurement of the OD (optical density) at 600 nm.
To highlight the presence or absence of bacterial growth on the plate described above, PrestoBlue was also used, which is a resazurin-based solution which uses the reducing power of cells to measure cell proliferation. Said solution is blue and turns into red upon contact with live bacterial cells.
After having incubated the plate with the PrestoBlue and read the fluorescence values by using a Victor 3 Wallac microplate reader, the data were confirmed.

- amount of xibornol dissolved by 4% isopropanol [2]: up to 1200 μg/mL
- MIC ([5]; Cutibacterium acnes, ATCC 11827 / ATCC 6919, 72 h, strains ATCC-11827 and ATCC-6919, anaerobic, 37° C., 72 hours, xibornol racemate in 4% isopropanol): 4.69 to 9.37 µg/mL (≈ 18.1 to 36.3 µM)
- minimum inhibitory concentration (MIC) ([5]; strains ATCC-11827 and ATCC-6919, anaerobic, 37° C., 72 hours, xibornol racemate in 4% isopropanol): 9.37 µg/mL (≈ 36.3 µM)
Compound: Cc1cc(O)c(C2CC3CCC2(C)C3(C)C)cc1C (racemic) [xibornol, 4,5-dimethyl-2-[1,7,7-trimethylbicyclo[2.2.1]heptan-2-yl]phenol]
- Average concentration of IL-8 ([1]; 0.1% xibornol (0.79 mg/mL) in paraffin oil/vaseline carrier, topical once a day for 7 days, ear homogenate supernatant): 190.61 pg/mL
- change in IL-8 levels with respect to the control group ([1]; 0.1% xibornol topical, once a day for 7 days): significant reduction
- minimum bactericidal concentration (MBC) ([3]; 10 μl from each well inoculated on RCA plates with the same xibornol concentrations in 4% isopropanol): 9.37 µg/mL (≈ 36.3 µM)
- MBC ([3]; Cutibacterium acnes, 10 μl from each well inoculated on RCA plates with the same xibornol concentrations in 4% isopropanol): 4.69 to 9.37 µg/mL (≈ 18.1 to 36.3 µM)
- growth on RCA plates ([3]; xibornol 4.69 μg/mL): massive growth, comparable to that of the positive control
- concentration of xibornol administrable topically without irritation or sensitisation of the epidermis [4]: less than 5 mg/mL
- concentration of xibornol administrable topically without irritation or sensitisation of the epidermis, even more preferably [4]: less than 2.5 mg/mL
- antibacterial efficacy compared with clindamycin ([5]; Propionibacterium acnes): comparable to that of clindamycin
- bacterial growth in wells ([5]; xibornol at 4.69 μg/mL, 2.34 μg/mL, 1.17 μg/mL, 72 hours, PrestoBlue red colour): bacterial growth was observed
